This test has as its target T1, human S1P5 (Homo sapiens, UniProt Q9H228).
T1 construct: host or cells: recombinant CHEM cells
Description: Calcium flux assay, antagonist assay format (S1P receptor activity assay). Type of test: cell-based. As for the experimental part: Agonist percentage activation determinations were obtained by assaying sample compounds and referencing the Emax control for each receptor profiled. Antagonist percentage inhibition determinations were obtained by assaying sample compounds and referencing the control EC80 wells for each receptor profiled.
Sample compounds were plated in an eight-point, four-fold dilution series in duplicate with a top concentration of 10 μM. The concentrations described here reflect the final concentration of the compounds during the antagonist assay.
Using the EC80 values determined during the agonist assay, stimulated all pre-incubated sample compound and reference antagonist (if applicable) wells with EC80 of reference agonist.

SMILES strings stand for the structures.

T1 sequence (Q9H228 whole entry): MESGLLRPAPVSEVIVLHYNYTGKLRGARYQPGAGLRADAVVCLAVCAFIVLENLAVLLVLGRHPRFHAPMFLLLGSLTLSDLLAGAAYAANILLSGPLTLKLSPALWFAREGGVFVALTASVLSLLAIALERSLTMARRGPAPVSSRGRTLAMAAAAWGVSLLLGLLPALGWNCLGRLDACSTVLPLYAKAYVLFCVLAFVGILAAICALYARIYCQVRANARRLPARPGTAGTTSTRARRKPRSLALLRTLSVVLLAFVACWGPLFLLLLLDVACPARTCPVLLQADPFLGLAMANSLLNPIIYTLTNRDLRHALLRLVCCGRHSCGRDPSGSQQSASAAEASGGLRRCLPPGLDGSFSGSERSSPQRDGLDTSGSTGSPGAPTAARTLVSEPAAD

In general, IC50 refers to the concentration that gives 50% inhibition. For the compound `Cc1cc(O[C@H]2CC[C@@H]([Si](C)(C)C)CC2)c(CN2CCC(C(=O)O)CC2)c2ccccc12` [Example 25, 1-((4-methyl-2-((cis-4-(trimethylsilyl)cyclohexyl)oxy)naphthalen-1-yl)methyl)piperidine-4-carboxylic acid], the IC50 was at most 100 nM.

The values are drawn from US9765016B2, “S1P modulating agents” (BIOGEN MA INC., priority 2013, dated 2017).
